No end group written: not given here.
Key:
[1] = tested on: methicillin-resistant S. aureus (ATCC 43300); format: cell-based, Staphylococcus aureus; conditions: for MIC: ATCC 43300; for MBC: ATCC 43300, 24 h
From the text: (§1) The strains were used in the experiments, including Gram-positive bacteria Staphylococcus aureus (ATCC 25923), Bacillus subtilis (ATCC 6633), Streptococcus mutans (ATCC 25175), Methicillin-resistant Staphylococcus aureus (ATCC 43300), Methicillin-resistant Staphylococcus aureus 1–3 (clinically isolated, number 1–3), Gram-negative bacteria Escherichia coli (ATCC 25922), E. coli (D 31), Pseudomonas aeruginosa (ATCC 15442), P. aeruginosa PAO1 (wild type), and the fungus Candida albicans (ATCC 10231). S. mutans was cultured in Brain Heart Infusion Broth (BHI, Beijing Land Bridge, China) under anaerobic condition; C. albicans was grown in Sabouraud Dextrose Broth (SDB, HuanKai Microbial, Guangzhou, China); and the other bacterial strains were grown in Tryptic Soy Broth (TSB, HuanKai Microbial, Guangzhou, China). All bacteria and fungi were cultivated to the logarithmic phase at 37 °C before experiments were performed.
(§2) The antimicrobial activities of the peptides were measured by the two-fold dilution method. Each strain was inoculated in the medium and cultivated to the logarithmic phase. A series of diluted peptides (concentrations of 3.1–100 μM, 50 μL) were prepared in a 96-well plate (Corning, New York, NY, USA), and the same volume of the bacterial suspension (the final concentration of 1 × 10^6 CFU/mL) was added. After incubation at 37 °C for 18–24 h, the absorbance at 600 nm was measured by using a microplate reader (Multiskan Spectrum, BioTek, Winuski, VT, USA). […] All tests were performed in triplicate independent experiments.
(§3) From the MIC measuring plates, 50 μL of bacteria suspension in the presence of peptides when the concentrations were equal and up to MICs was spread on the BHI agar medium, and incubated at 37 °C for 24 h. The peptide concentration with no bacterial growth was defined as MBC [33].

[2] = tested on: MRSA-2, methicillin-resistant S. aureus (clinically isolated, No.2); format: cell-based, Staphylococcus aureus; conditions: for MIC: -2, methicillin-resistant (clinically isolated, No.2); for MBC: -2, methicillin-resistant (clinically isolated, No.2, 24 h)
From the text: as §1, §2, §3

[3] = tested on: MRSA-1, methicillin-resistant S. aureus (clinically isolated, No.1); format: cell-based, Staphylococcus aureus; conditions: for MIC: -1, methicillin-resistant (clinically isolated, No.1); for MBC: -1, methicillin-resistant (clinically isolated, No.1, 24 h)
From the text: as §1, §2, §3

[4] = tested on: MRSA-3, methicillin-resistant S. aureus (clinically isolated, No.3); format: cell-based, Staphylococcus aureus; conditions: for MIC: -3, methicillin-resistant (clinically isolated, No.3); for MBC: -3, methicillin-resistant (clinically isolated, No.3, 24 h)
From the text: as §1, §2, §3

[5] = tested on: P. aeruginosa PAO1 (wild type); format: cell-based, Pseudomonas aeruginosa; conditions: for MIC: PAO1; for MBC: PAO1, 24 h
From the text: as §1, §2, §3

[6] = tested on: Pseudomonas aeruginosa (ATCC 15442); format: cell-based; conditions: for MIC: ATCC 15442; for MBC: ATCC 15442, 24 h
From the text: as §1, §2, §3

[7] = tested on: Staphylococcus aureus (ATCC 25923); format: cell-based; conditions: for MIC: ATCC 25923; for MBC: ATCC 25923, 24 h
From the text: as §1, §2, §3

[8] = tested on: Escherichia coli (ATCC 25922); format: cell-based; conditions: for MIC: ATCC 25922; for MBC: ATCC 25922, 24 h
From the text: as §1, §2, §3

[9] = tested on: Streptococcus mutans (ATCC 25175); format: cell-based; conditions: for MIC: ATCC 25175; for MBC: ATCC 25175, 24 h
From the text: as §1, §2, §3

[10] = tested on: Candida albicans (ATCC 10231); format: cell-based; conditions: for MIC: ATCC 10231; for MBC: ATCC 10231, 24 h
From the text: as §1, §2, §3

[11] = tested on: Bacillus subtilis (ATCC 6633); format: cell-based; conditions: for MIC: ATCC 6633; for MBC: ATCC 6633, 24 h
From the text: as §1, §2, §3

[12] = tested on: Human red blood cells (hRBCs); format: cell-based
Method: The hemolytic toxicity of the peptides was determined as described. Human red blood cells (hRBCs) were washed with phosphate-buffered saline (PBS, pH 7.2) and centrifuged at 1000× g for 10 min at 4 °C until the supernatant was clear. 4% hRBCs and an equal volume of the peptides with different concentrations were incubated at 37 °C for 1 h. After incubation, the supernatant was collected by centrifugation, and 150 μL was transferred to a new 96-well plate (Corning, New York, NY, USA). The absorbance at 450 nm was measured. The 0.1% Triton X-100 was used as the positive control, and PBS was used as the negative control. The minimum hemolysis concentration (MHC) was defined as the lowest concentration of peptide that causes 10% hemolysis, and HL50 was the lowest concentration that causes 50% hemolysis. CSI was defined as the ratio of HL50 to MIC [31].

[13] = tested on: S. mutans mature biofilms; test: Mature biofilm eradication, crystal violet; format: cell-based, Streptococcus mutans; conditions: 24 h mature S. mutans biofilms, 24 h treatment, CV staining, absorbance 590 nm
Method: To evaluate the ability of the peptides to eradicate the mature biofilms of S. mutans, the bacteria (the final concentration of 1 × 10^6 CFU/mL) were seeded in a flat bottom 96-well plate for 24 h to obtain the mature biofilms. The planktonic bacteria were washed away, and the peptides with the concentrations of 3.1–50 μM were added. After treatment for 24 h, CV was used for staining and quantification as described above. The biofilms untreated with the peptides served as the negative control. MBEC50 was defined as the lowest peptide concentration that removed 50% of the mature biofilm.

[14] = tested on: E. coli (D31), anti-streptomycin strain; format: cell-based, Escherichia coli; conditions: 37 °C; for MIC: TSB, 1 × 10^6 CFU/mL, 18–24 h, absorbance 600 nm, triplicate, first value of cell; for MBC: plated from MIC wells on agar, 24 h, no growth, second value of cell
From the text: as §1, §2, §3

S. mutans biofilms = format: cell-based, Streptococcus mutans; conditions: S. mutans in BHI with 1% sucrose, 24 h anaerobic, CV staining, absorbance 590 nm
Method: CV was used to detect the effects of the peptides on the formation of biofilm and the eradication of mature biofilm. 100 μL of S. mutans in the logarithmic phase was diluted in BHI (containing 1% sucrose) to the concentration of 2 × 10^6 CFU/mL. The suspensions were added to the equal volume of the peptides (the final concentrations of 0.8–12.5 μM). After incubation at 37 °C under anaerobic conditions for 24 h, the supernatant was discarded. The plate was irrigated with PBS carefully to wash away the planktonic bacteria. After fixing with anhydrous methanol for 15 min, 0.5% CV was added to each well for staining the biofilms. The excess CV was washed away by PBS (pH 7.2), and the bound CV was dissolved with anhydrous methanol. A microplate reader (Multiskan Spectrum, BioTek, Winuski, VT, USA) was used to measure the absorbance value of 590 nm. MBIC50 was defined as the lowest peptide concentration that inhibited 50% of biofilm formation.

Sequence FLQRIIGALGRLF [GHaR] has an MIC [1] of 3.1 µM, an MBC [1] of 3.1 µM and an MIC [2] of 6.2 µM. It also gave an MBC [2] of 12.5 µM, an MIC [3] of 3.1 µM and an MBC [3] of 25 µM. For the same sequence, the MIC [4] was 3.1 µM, the MBC [4] was 6.2 µM and the MIC [5] was 25 µM. The MBC [5] was 50 µM, the MIC [6] was 6.2 µM and the MBC [6] was 6.2 µM. The MIC [7] was 1.6 µM, the MBC [7] was 1.6 µM and the MIC [8] was 6.2 µM. The MBC [8] was 6.2 µM, the MIC [9] was 3.1 µM and the MBC [9] was 6.2 µM. The MIC [10] was 12.5 µM and the MBC [10] was 50 µM.
Sequence FLQRIIGARGRLF [GHaR9R] has an MIC [1] greater than 50 µM, an MBC [1] greater than 50 µM and an MIC [2] greater than 50 µM. It also gave an MBC [2] greater than 50 µM, an MIC [3] greater than 50 µM and an MBC [3] greater than 50 µM. The MIC [4] was greater than 50 µM, the MBC [4] was greater than 50 µM and the MIC [5] was greater than 50 µM. The MBC [5] was greater than 50 µM, the MIC [6] was greater than 50 µM and the MBC [6] was greater than 50 µM. The MIC [7] was 6.2 µM, the MBC [7] was 12.5 µM and the MIC [8] was greater than 50 µM. For the same sequence, the MBC [8] was greater than 50 µM, the MIC [9] was greater than 50 µM and the MBC [9] was greater than 50 µM. It also gave an MIC [10] greater than 50 µM, an MBC [10] greater than 50 µM and an MIC [11] greater than 50 µM. It also gave an MBC [11] greater than 50 µM.
FLQRIIGAWGRLF [GHaR9W] gave an MIC [1] of 6.2 µM, an MBC [1] of 12.5 µM and an MIC [2] of 6.2 µM. It also gave an MBC [2] of 12.5 µM, an MIC [3] of 6.2 µM and an MBC [3] of 12.5 µM. The MIC [4] was 6.2 µM, the MBC [4] was 12.5 µM and the MIC [5] was 25 µM. For the same sequence, the MBC [5] was 50 µM, the “HL50 relative to that of GHaR” value [12] was 1–5 times higher and the MIC [6] was greater than 50 µM. It also gave an MBC [6] greater than 50 µM, an MIC [7] of 3.1 µM and an MBC [7] of 6.2 µM. It also gave an MIC [8] of 12.5 µM, an MBC [8] of 12.5 µM and an MIC [9] of 6.2 µM. The MBC [9] was 6.2 µM, the MIC [10] was 25 µM and the MBC [10] was 25 µM.
FLQRIIGRLGRLF [GHaR8R] gave an MIC [1] of 3.1 µM, an MBC [1] of 3.1 µM and an MIC [2] of 3.1 µM. For the same sequence, the MBC [2] was 12.5 µM, the MIC [3] was 6.2 µM and the MBC [3] was 6.2 µM. For the same sequence, the MIC [4] was 6.2 µM, the MBC [4] was 12.5 µM and the MIC [5] was 6.2 µM. The MBC [5] was 12.5 µM, the “HL50 relative to that of GHaR” value [12] was 1–5 times higher and the “MBEC50 (lowest peptide concentration that removed 50% of the mature biofilm)” value [13] was 12.5 µM. It also gave an MIC [14] of 12.5 µM, an MBC [14] of 25 µM and a time to complete eradication of less than 15 min. It also gave an MIC [6] of 50 µM, an MBC [6] greater than 50 µM and an MIC [7] of 1.6 to 3.1 µM. It also gave an MBC [7] of 3.1 µM, an MIC [8] of 3.1 µM and an MBC [8] of 3.1 µM. The MIC [9] was 6.2 µM, the MBC [9] was 6.2 µM and the MIC [10] was 12.5 µM. For the same sequence, the MBC [10] was 12.5 µM, the MIC [11] was 12.5 µM and the MBC [11] was 12.5 µM. For the same sequence, the “MBIC50 (lowest peptide concentration that inhibited 50% of biofilm formation)” value (S. mutans biofilms) was 1.6 µM.
In the case of FLQRIIRALGRLF [GHaR7R], the MIC [1] is reported as 3.1 µM, the MBC [1] is reported as 6.2 µM and the MIC [2] is reported as 6.2 µM. It also gave an MBC [2] of 50 µM, an MIC [3] of 6.2 µM and an MBC [3] of 25 µM. It also gave an MIC [4] of 6.2 µM, an MBC [4] of 25 µM and an MIC [5] greater than 50 µM. For the same sequence, the MBC [5] was greater than 50 µM, the “MBEC50 (lowest peptide concentration that removed 50% of the mature biofilm)” value [13] was 25 µM and the MIC [14] was 12.5 µM. It also gave an MBC [14] of 50 µM, an MIC [6] greater than 50 µM and an MBC [6] greater than 50 µM. The MIC [7] was 3.1 µM, the MBC [7] was 3.1 µM and the MIC [8] was 3.1 µM. For the same sequence, the MBC [8] was 12.5 µM, the MIC [9] was 6.2 µM and the MBC [9] was 12.5 µM. It also gave an MIC [10] of 25 µM, an MBC [10] of 25 µM and an MIC [11] greater than 50 µM. For the same sequence, the MBC [11] was greater than 50 µM and the “MBIC50 (lowest peptide concentration that inhibited 50% of biofilm formation)” value (S. mutans biofilms) was 6.2 µM.
Sequence FLQRIRGALGRLF [GHaR6R] has an MIC [1] of 6.2 µM, an MBC [1] of 12.5 µM and an MIC [2] of 12.5 µM. It also gave an MBC [2] of 25 µM, an MIC [3] of 12.5 µM and an MBC [3] of 25 µM. For the same sequence, the MIC [4] was 6.2 µM, the MBC [4] was 25 µM and the MIC [5] was 3.1 µM. The MBC [5] was 25 µM, the “HL50 relative to that of GHaR” value [12] was 1–5 times higher and the “MBEC50 (lowest peptide concentration that removed 50% of the mature biofilm)” value [13] was 25 µM. The MIC [14] was 25 µM, the MBC [14] was 50 µM and the time to complete eradication was less than 15 min. It also gave an MIC [6] greater than 50 µM, an MBC [6] greater than 50 µM and an MIC [7] of 3.1 µM. For the same sequence, the MBC [7] was 12.5 µM, the MIC [8] was 12.5 µM and the MBC [8] was 12.5 µM. For the same sequence, the MIC [9] was 12.5 µM, the MBC [9] was 12.5 µM and the MIC [10] was 50 µM. It also gave an MBC [10] of 50 µM, an MIC [11] of 25 µM and an MBC [11] of 50 µM. For the same sequence, the “MBIC50 (lowest peptide concentration that inhibited 50% of biofilm formation)” value (S. mutans biofilms) was 6.2 µM.
